# Laboratory results from patent publication US20220401514A1, “ANTIMICROBIAL, BACTERIOPHAGE-DERIVED POLYPEPTIDES AND THEIR USE AGAINST GRAM-NEGATIVE AND ACID-FAST BACTERIA” (CONTRAFECT CORPORATION, priority 2019, published 2022).
# Like-named read-outs stand apart in the source and are kept apart here.
# How the values were obtained:
# Pseudomonas aeruginosa = assay: microbe, parasite or virus in culture; format: cell-based; conditions: for MIC: CAA without human serum
# M. smegmatis = assay: 45 hr MIC against M. smegmatis (NTM), Mueller Hinton broth; format: cell-based, Mycobacterium smegmatis; conditions: M. smegmatis MC^2 155, Run #1
# [1] = system: carbapenem-resistant P. aeruginosa clinical isolate CFS-1292; assay: MIC by modified CLSI broth microdilution against P. aeruginosa CFS-1292 (CAA, CAA + human serum); format: cell-based, Pseudomonas aeruginosa; conditions: 100% CAA; 1st run or single value
# [2] = system: carbapenem-resistant bacterial strains; assay: organism not typed; format: cell-based
# Excerpt: (§1) Determination of Minimal Inhibitory Concentrations (MIC).
# Klebsiella pneumoniae [3] = assay: microbe, parasite or virus in culture; format: cell-based; conditions: CAA without human serum
# [4] = system: P. aeruginosa strain CFS-1292; assay: MIC in presence of divalent cations (calcium chloride, magnesium sulfate); format: cell-based, Pseudomonas aeruginosa
# Procedure: Next, Chp peptides were evaluated in the presence of different divalent cations. […]; (2) in the presence of 2 mM calcium chloride alone; (3) in the presence of 1 mM magnesium sulfate alone; and (4) in the presence of both 2 mM calcium chloride and 1 mM magnesium sulfate. […]
# [5] = system: P. aeruginosa strain CFS-1292; assay: MIC at pH 6, pH 7 and pH 8; format: cell-based, Pseudomonas aeruginosa
# Procedure: The Chp peptides were further evaluated at varying pH levels. The MIC values were determined at pH 6, pH 7, and pH 8 for 18 different Chp peptides against P. aeruginosa strain CFS-1292. […]
# Salmonella typhimurium = assay: MIC against Salmonella typhimurium; format: cell-based
# [6] = Stability assessment in 100% CAA; format: in vitro ADME; design: unit not given beside the values
# Procedure: Stability was assessed after incubation in 100% human serum at 37° C. after 10 minutes, 1 hour, and 2 hours.
# Stability assessment was further conducted in 100% CAA and rabbit serum using the same methodology discussed above.
# [7] = system: P. aeruginosa strain CFS-1292; assay: MIC in presence and absence of Survanta pulmonary surfactant; format: cell-based, Pseudomonas aeruginosa
# Acinetobacter baumannii = assay: microbe, parasite or virus in culture; format: cell-based
# S. maltophilia = assay: MIC against S. maltophilia isolates; format: cell-based, Stenotrophomonas maltophilia; conditions: S. maltophilia isolates (n per peptide in table)
# Summary of the method: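 MIC in μg/mL for Chp peptides across several S. maltophilia isolates, n denoting the number of isolates tested.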
# Klebsiella pneumoniae [8] = format: cell-based
# Procedure: as §1
# Additional MIC testing was performed for several peptides against the ESKAPE pathogens Escherichia coli, Enterobacter cloacae, Klebsiella pneumoniae, and Acinetobacter baumannii, in CAA supplemented with human serum (Table D).
# [9] = system: P. aeruginosa strain CFS-1292; assay: MIC in presence and absence of NaCl (140 mM); format: cell-based, Pseudomonas aeruginosa
# Procedure: Certain Chp peptides were evaluated over a range of physiological NaCl levels and pH values, and were further evaluated for activity in the presence of various divalent cations.
# Escherichia coli = assay: microbe, parasite or virus in culture; format: cell-based
# Summary of the method: (§2)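 Peptide MICs were determined by growth inhibition in CAA medium supplemented with human serum.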
# Enterobacter cloacae = assay: microbe, parasite or virus in culture; format: cell-based
# Summary of the method: as §2
# [10] = P. aeruginosa isolates (n per peptide in table)
# [11] = A. baumannii isolates (n per peptide in table)
# [12] = K. pneumoniae isolates (n per peptide in table)
# [13] = E. coli isolates (n per peptide in table)
# [14] = E. cloacae isolates (n per peptide in table)
sequence,measurement,setting,value
MARSRRRMSKRSSRRSFRKYAKTHKRNFKARSMRGGIRL [Ecp1],MIC,"Pseudomonas aeruginosa; P. aeruginosa 453 (Human clinical isolate, HSS), RSC 1292",2 µg/mL
same,MIC,"Pseudomonas aeruginosa; P. aeruginosa (ATCC 14213, human hip wound), RSC 1111",2 µg/mL
same,MIC,"Pseudomonas aeruginosa; P. aeruginosa (ATCC 15152, abscess in middle ear), RSC 1110",1 µg/mL
same,MIC,"Pseudomonas aeruginosa; P. aeruginosa (ATCC 15692, infected wound), RSC 489",2 µg/mL
same,MIC,"Pseudomonas aeruginosa; P. aeruginosa (ATCC 15692, infected wound), RSC 1115",2 µg/mL
same,MIC,"Pseudomonas aeruginosa; P. aeruginosa (ATCC 17646, human liver abscess), RSC 1109",2 µg/mL
same,MIC,"Pseudomonas aeruginosa; P. aeruginosa (ATCC 19142, tracheobronchial secretion), RSC 1108",1 µg/mL
same,MIC,"Pseudomonas aeruginosa; P. aeruginosa (ATCC 25102, bacteriophage host), RSC 1114",2 µg/mL
same,MIC,"Pseudomonas aeruginosa; P. aeruginosa (ATCC 27853, MIC control strain), RSC 815",2 µg/mL
same,MIC,"Pseudomonas aeruginosa; P. aeruginosa (ATCC BAA-27, lab strain), RSC 1113",4 µg/mL
same,MIC,"Pseudomonas aeruginosa; P. aeruginosa (PAO1, alternate source, HER1018), RSC 490",2 µg/mL
same,MIC50,Pseudomonas aeruginosa; [10],4 µg/mL
same,MIC100,Pseudomonas aeruginosa; [10],>8 µg/mL
same,45 hr MIC,M. smegmatis,4 µg/mL
same,MIC (μg/mL) against CFS-1292 in 100% CAA (1st run/2nd run),[1],0.5 µg/mL
same,MIC,[2]; carbapenem-resistant isolate PA19,1 µg/mL
same,MIC,[2]; carbapenem-resistant isolate PA20,>8 µg/mL
same,MIC,[2]; carbapenem-resistant isolate PA21,>8 µg/mL
same,MIC,[2]; carbapenem-resistant isolate PA22,8 µg/mL
same,MIC,[2]; carbapenem-resistant isolate PA23,4 µg/mL
same,MIC,[2]; carbapenem-resistant isolate PA24,4 µg/mL
same,MIC,[2]; carbapenem-resistant isolate WLC-452,2 µg/mL
same,MIC,"Klebsiella pneumoniae [3]; Klebsiella pneumoniae (ATCC 10031, MIC control strain), RSC 814",2 µg/mL
same,MIC,"Klebsiella pneumoniae [3]; Klebsiella pneumoniae (g2-3 HM35K), RSC 1138",2 µg/mL
same,MIC,"Klebsiella pneumoniae [3]; Klebsiella sp. (HM-44; colon, Crohn's disease), RSC 1139",2 µg/mL
same,MIC,"Klebsiella pneumoniae [3]; Klebsiella spp. (HM-223; gut of Crohn's disease patient), RSC 1131",2 µg/mL
same,MIC,[4]; CAA media + 1 mM MgSO4,0.5 µg/mL
same,MIC,[4]; CAA media + 2 mM CaCl2,1 µg/mL
same,MIC,[4]; CAA media + + 1 mM MgSO4,1 µg/mL
same,MIC,[4]; CAA media alone,0.5 µg/mL
same,MIC,[5]; CAA media (pH 7),0.5 µg/mL
same,MIC,[5]; pH 6,1 µg/mL
same,MIC,[5]; pH 7,1 µg/mL
same,MIC,[5]; pH 8,1 µg/mL
same,MIC,Salmonella typhimurium; Salmonella typhimurium,2 µg/mL
same,MIC,"Salmonella typhimurium; Salmonella typhimurium LT2 (lab isolate), RSC 27, CAA without human serum",2 µg/mL
same,MIC (100% CAA),[6],0.25
same,MIC,[7]; CAA media + 0.19 mg/mL Survanta,0.5 µg/mL
same,MIC,[7]; CAA media + […] Survanta,0.5 µg/mL
same,MIC,[7]; CAA media alone,0.5 µg/mL
same,MIC50,Acinetobacter baumannii; [11],0.5 µg/mL
same,MIC100,Acinetobacter baumannii; [11],1 µg/mL
same,MIC Range,Acinetobacter baumannii; [11],0.125 to 2 µg/mL
same,MIC,"Acinetobacter baumannii; Acinetobacter baumannii (clinical isolate HSS), RSC 30, CAA without human serum",2 µg/mL
same,MIC,"Acinetobacter baumannii; Acinetobacter baumannii (clinical isolate HSS), RSC 32, CAA without human serum",2 µg/mL
same,MIC,"Acinetobacter baumannii; Acinetobacter baumannii ATCC BAA 747, CAA supplemented with human serum",1 µg/mL
same,MIC50,S. maltophilia,8 µg/mL
same,MIC100,S. maltophilia,>8 µg/mL
same,MIC50,Klebsiella pneumoniae [8]; [12],1 µg/mL
same,MIC100,Klebsiella pneumoniae [8]; [12],2 µg/mL
same,MIC Range,Klebsiella pneumoniae [8]; [12],1 to 2 µg/mL
same,MIC,"Klebsiella pneumoniae [8]; Klebsiella pneumoniae HM-44, CAA supplemented with human serum",0.5 µg/mL
same,Fold change in MIC,[9]; CAA + 140 mM NaCl versus CAA without added NaCl,4
same,"MIC, CAA + 140 mM NaCl","[9]; CAA + 140 mM NaCl, P. aeruginosa CFS-1292",2 µg/mL
same,"MIC, CAA (no added NaCl)","[9]; CAA, no added NaCl, P. aeruginosa CFS-1292",0.5 µg/mL
same,MIC,"Escherichia coli; E. coli (ATCC 25922, MIC control strain), RSC 813, CAA without human serum",2 µg/mL
same,MIC,"Escherichia coli; E. coli (HM346, colon, Crohn's disease), RSC 1212, CAA without human serum",2 µg/mL
same,MIC50,Escherichia coli; [13],0.5 µg/mL
same,MIC100,Escherichia coli; [13],2 µg/mL
same,MIC Range,Escherichia coli; [13],0.25 to 4 µg/mL
same,MIC,"Escherichia coli; Escherichia coli ATCC 25922, CAA supplemented with human serum",0.25 µg/mL
same,MIC50,Enterobacter cloacae; [14],0.5 µg/mL
same,MIC100,Enterobacter cloacae; [14],2 µg/mL
same,MIC Range,Enterobacter cloacae; [14],0.25 to 4 µg/mL
same,MIC,"Enterobacter cloacae; Enterobacter cloacae (ATCC 13047, MIC control strain), RSC 1240, CAA without human serum",2 µg/mL
same,MIC,"Enterobacter cloacae; Enterobacter cloacae ATCC 13047, CAA supplemented with human serum",16 µg/mL
